From patent US11053204B2, “Pyrimidinyloxy benzene derivatives as herbicides” (FMC Corporation, priority 2015, dated 2021)

Tests used:
Format in all cases: in vivo
[1] = system: barnyardgrass (Echinochloa crus-galli); test: Test B flooded paddy test, plant response rating; details: 250 g ai/ha; Flood; scale of 0 to 100 where 0 is no effect and 100 is complete control; 13 to 15 days
Text: (§1) At time of treatment, test pots were flooded to 3 cm above the soil surface, treated by application of test compounds directly to the paddy water, and then maintained at that water depth for the duration of the test. Treated plants and controls were maintained in a greenhouse for 13 to 15 days, after which time all species were compared to controls and visually evaluated. […] A dash (-) response means no test result.

rice (Oryza sativa) = test: Test B flooded paddy test, plant response rating; details: 250 g ai/ha; Flood; scale of 0 to 100 where 0 is no effect and 100 is complete control; 13 to 15 days
Text: as §1

[2] = system: sedge, umbrella (small-flower umbrella sedge, Cyperus difformis); test: Test B flooded paddy test, plant response rating; details: 250 g ai/ha; Flood; scale of 0 to 100 where 0 is no effect and 100 is complete control; 13 to 15 days
Text: as §1

[3] = system: ducksalad (Heteranthera limosa); test: Test B flooded paddy test, plant response rating; details: 250 g ai/ha; Flood; scale of 0 to 100 where 0 is no effect and 100 is complete control; 13 to 15 days
Text: as §1

[4] = system: ragweed (common ragweed, Ambrosia elatior); test: Test A preemergence, visual injury rating; details: for Plant response rating, Ragweed: 31 g ai/ha, 0 to 100 scale, 0 no effect, 100 complete control; for Ragweed plant response rating: 125 g ai/ha, 0 to 100 scale (0 no effect, 100 complete control)
Text: (§2) Seeds of plant species selected from barnyardgrass (Echinochloa crus-galli), kochia (Kochia scoparia), ragweed (common ragweed, Ambrosia elatior), Italian ryegrass (Lolium multiflorum), large (Lg) crabgrass (Digitaria sanguinalis), giant foxtail (Setaria faberii), morningglory (Ipomoea spp.), pigweed (Amaranthus retroflexus), velvetleaf (Abutilon theophrasti), wheat (Triticum aestivum), and corn (Zea mays) were planted into a blend of loam soil and sand and treated preemergence with a directed soil spray using test chemicals formulated in a non-phytotoxic solvent mixture which included a surfactant.
(§3) At the same time, plants selected from these crop and weed species and also blackgrass (Alopecurus myosuroides), and galium (catchweed bedstraw, Galium aparine) were planted in pots containing the same blend of loam soil and sand and treated with postemergence applications of test chemicals formulated in the same manner. Plants ranged in height from 2 to 10 cm and were in the one- to two-leaf stage for the postemergence treatment. Treated plants and untreated controls were maintained in a greenhouse for approximately 10 days, after which time all treated plants were compared to untreated controls and visually evaluated for injury. Plant response ratings, summarized in Table A, are based on a 0 to 100 scale where 0 is no effect and 100 is complete control. A dash (-) response means no test result.

kochia (Kochia scoparia) [5] = test: Test A preemergence, visual injury rating; details: for Plant response rating, Kochia: 31 g ai/ha, 0 to 100 scale, 0 no effect, 100 complete control; for Kochia plant response rating: 125 g ai/ha, 0 to 100 scale (0 no effect, 100 complete control)
Text: as §2, §3

[6] = system: Italian ryegrass (Lolium multiflorum); test: Test A preemergence, visual injury rating; details: for Plant response rating, Ryegrass, Italian: 31 g ai/ha, 0 to 100 scale, 0 no effect, 100 complete control; for Ryegrass, Italian plant response rating: 125 g ai/ha, 0 to 100 scale (0 no effect, 100 complete control)
Text: as §2, §3

[7] = system: barnyardgrass (Echinochloa crus-galli); test: Test A preemergence, visual injury rating; details: for Plant response rating, Barnyardgrass: 31 g ai/ha, 0 to 100 scale, 0 no effect, 100 complete control; for Barnyardgrass plant response rating: 125 g ai/ha, 0 to 100 scale (0 no effect, 100 complete control)
Text: as §2, §3

[8] = system: giant foxtail (Setaria faberii); test: Test A preemergence, visual injury rating; details: for Plant response rating, Foxtail, Giant: 31 g ai/ha, 0 to 100 scale, 0 no effect, 100 complete control; for Foxtail, Giant plant response rating: 125 g ai/ha, 0 to 100 scale (0 no effect, 100 complete control)
Text: as §2, §3

[9] = system: pigweed (Amaranthus retroflexus); test: Test A preemergence, visual injury rating; details: for Plant response rating, Pigweed: 31 g ai/ha, 0 to 100 scale, 0 no effect, 100 complete control; for Pigweed plant response rating: 125 g ai/ha, 0 to 100 scale (0 no effect, 100 complete control)
Text: as §2, §3

[10] = system: ragweed (common ragweed, Ambrosia elatior); test: Test A postemergence, visual injury rating; details: 0 is no effect, 100 is complete control; for Ragweed plant response rating: 31 g ai/ha, 0 to 100 scale, approximately 10 days; for Ragweed plant response rating (0 to 100 scale): 125 g ai/ha
Text: as §2, §3

kochia (Kochia scoparia) [11] = test: Test A postemergence, visual injury rating; details: 0 is no effect, 100 is complete control; for Kochia plant response rating: 31 g ai/ha, 0 to 100 scale, approximately 10 days; for Kochia plant response rating (0 to 100 scale): 125 g ai/ha
Text: as §2, §3

[12] = system: wheat (Triticum aestivum); test: Test A postemergence, visual injury rating; details: 0 is no effect, 100 is complete control; for Wheat plant response rating: 31 g ai/ha, 0 to 100 scale, approximately 10 days; for Wheat plant response rating (0 to 100 scale): 125 g ai/ha
Text: as §2, §3

[13] = system: Italian ryegrass (Lolium multiflorum); test: Test A postemergence, visual injury rating; details: 0 is no effect, 100 is complete control; for Ryegrass, Italian plant response rating: 31 g ai/ha, 0 to 100 scale, approximately 10 days; for Ryegrass, Italian plant response rating (0 to 100 scale): 125 g ai/ha
Text: as §2, §3

[14] = system: barnyardgrass (Echinochloa crus-galli); test: Test A postemergence, visual injury rating; details: 0 is no effect, 100 is complete control; for Barnyardgrass plant response rating: 31 g ai/ha, 0 to 100 scale, approximately 10 days; for Barnyardgrass plant response rating (0 to 100 scale): 125 g ai/ha
Text: as §2, §3

[15] = system: galium (catchweed bedstraw, Galium aparine); test: Test A postemergence, visual injury rating; details: 0 is no effect, 100 is complete control; for Galium plant response rating: 31 g ai/ha, 0 to 100 scale, approximately 10 days; for Galium plant response rating (0 to 100 scale): 125 g ai/ha
Text: as §2, §3

corn (Zea mays) = test: Test A postemergence, visual injury rating; details: 0 is no effect, 100 is complete control; for Corn plant response rating: 31 g ai/ha, 0 to 100 scale, approximately 10 days; for Corn plant response rating (0 to 100 scale): 125 g ai/ha
Text: as §2, §3

[16] = system: blackgrass (Alopecurus myosuroides); test: Test A postemergence, visual injury rating; details: 0 is no effect, 100 is complete control; for Blackgrass plant response rating: 31 g ai/ha, 0 to 100 scale, approximately 10 days; for Blackgrass plant response rating (0 to 100 scale): 125 g ai/ha
Text: as §2, §3

[17] = system: giant foxtail (Setaria faberii); test: Test A postemergence, visual injury rating; details: 0 is no effect, 100 is complete control; for Foxtail, Giant plant response rating: 31 g ai/ha, 0 to 100 scale, approximately 10 days; for Foxtail, Giant plant response rating (0 to 100 scale): 125 g ai/ha
Text: as §2, §3

[18] = system: pigweed (Amaranthus retroflexus); test: Test A postemergence, visual injury rating; details: 0 is no effect, 100 is complete control; for Pigweed plant response rating: 31 g ai/ha, 0 to 100 scale, approximately 10 days; for Pigweed plant response rating (0 to 100 scale): 125 g ai/ha
Text: as §2, §3

| Structure (SMILES) | Plant response rating, Barnyardgrass [1] | Plant response rating, Rice (rice (Oryza sativa)) | Plant response rating, Sedge, Umbrella [2] | Plant response rating, Ducksalad [3] | Plant response rating, Ragweed [4] | Ragweed plant response rating [4] | Plant response rating, Kochia (kochia (Kochia scoparia) [5]) | Kochia plant response rating (kochia (Kochia scoparia) [5]) | Plant response rating, Ryegrass, Italian [6] | Ryegrass, Italian plant response rating [6] | Plant response rating, Barnyardgrass [7] | Barnyardgrass plant response rating [7] | Plant response rating, Foxtail, Giant [8] | Foxtail, Giant plant response rating [8] | Plant response rating, Pigweed [9] | Pigweed plant response rating [9] | Ragweed plant response rating [10] | Ragweed plant response rating (0 to 100 scale) [10] | Kochia plant response rating (kochia (Kochia scoparia) [11]) | Kochia plant response rating (0 to 100 scale) (kochia (Kochia scoparia) [11]) | other results |
| --- | --- | --- | --- | --- | --- | --- | --- | --- | --- | --- | --- | --- | --- | --- | --- | --- | --- | --- | --- | --- | --- |
| CC(C)COC(=O)c1c(Br)cccc1Oc1ncc(Cl)cn1 [Compound 1] | 0 | 0 | 80 | 20 | 0 | 0 | 0 | 40 | 0 | 0 | 20 | 30 | 30 | 70 | 20 | 70 | 0 | 10 | 20 | 30 | Wheat plant response rating [12]: 0; Wheat plant response rating (0 to 100 scale) [12]: 0; Ryegrass, Italian plant response rating [13]: 0; Ryegrass, Italian plant response rating (0 to 100 scale) [13]: 0; Barnyardgrass plant response rating [14]: 20; Barnyardgrass plant response rating (0 to 100 scale) [14]: 30; Galium plant response rating [15]: 50; Galium plant response rating (0 to 100 scale) [15]: 70; Corn plant response rating (corn (Zea mays)): 0; Corn plant response rating (0 to 100 scale) (corn (Zea mays)): 20; Blackgrass plant response rating [16]: 0; Blackgrass plant response rating (0 to 100 scale) [16]: 20; Foxtail, Giant plant response rating [17]: 30; Foxtail, Giant plant response rating (0 to 100 scale) [17]: 60; Pigweed plant response rating [18]: 40; Pigweed plant response rating (0 to 100 scale) [18]: 70 |
| C=C(Cl)COC(=O)c1c(Br)cccc1Oc1ncc(Cl)cn1 [Compound 2] | 0 | 0 | 100 | 30 | 0 | 0 | 30 | 70 | 0 | 10 | 10 | 50 | 70 | 100 | 40 | 90 | 0 | 0 | 50 | 90 | Wheat plant response rating [12]: 0; Wheat plant response rating (0 to 100 scale) [12]: 0; Ryegrass, Italian plant response rating [13]: 0; Ryegrass, Italian plant response rating (0 to 100 scale) [13]: 20; Barnyardgrass plant response rating [14]: 30; Barnyardgrass plant response rating (0 to 100 scale) [14]: 40; Galium plant response rating [15]: 60; Galium plant response rating (0 to 100 scale) [15]: 90; Corn plant response rating (corn (Zea mays)): 10; Corn plant response rating (0 to 100 scale) (corn (Zea mays)): 20; Blackgrass plant response rating [16]: 0; Blackgrass plant response rating (0 to 100 scale) [16]: 30; Foxtail, Giant plant response rating [17]: 30; Foxtail, Giant plant response rating (0 to 100 scale) [17]: 60; Pigweed plant response rating [18]: 60; Pigweed plant response rating (0 to 100 scale) [18]: 80 |
| C=C(C)COC(=O)c1c(Br)cccc1Oc1ncc(Cl)cn1 [Compound 3] | 0 | 0 | 100 | 30 | 0 | 0 | 0 | 40 | 0 | 30 | 60 | 80 | 70 | 100 | 50 | 100 | 0 | 0 | 0 | 40 | Wheat plant response rating [12]: 0; Wheat plant response rating (0 to 100 scale) [12]: 0; Ryegrass, Italian plant response rating [13]: 0; Ryegrass, Italian plant response rating (0 to 100 scale) [13]: 30; Barnyardgrass plant response rating [14]: 20; Barnyardgrass plant response rating (0 to 100 scale) [14]: 60; Galium plant response rating [15]: 40; Galium plant response rating (0 to 100 scale) [15]: 70; Corn plant response rating (corn (Zea mays)): 0; Corn plant response rating (0 to 100 scale) (corn (Zea mays)): 30; Blackgrass plant response rating [16]: 0; Blackgrass plant response rating (0 to 100 scale) [16]: 30; Foxtail, Giant plant response rating [17]: 30; Foxtail, Giant plant response rating (0 to 100 scale) [17]: 80; Pigweed plant response rating [18]: 70; Pigweed plant response rating (0 to 100 scale) [18]: 100 |
| O=C(OCC(F)(F)C(F)(F)F)c1c(F)cccc1Oc1ncc(Br)cn1 [Compound 4] | 0 | 0 | 0 | 0 | 0 | 0 | 0 | 0 | 0 | 0 | 0 | 0 | 0 | 0 | 0 | 0 | 0 | 0 | 0 | 0 | Wheat plant response rating [12]: 0; Wheat plant response rating (0 to 100 scale) [12]: 0; Ryegrass, Italian plant response rating [13]: 0; Ryegrass, Italian plant response rating (0 to 100 scale) [13]: 0; Barnyardgrass plant response rating [14]: 0; Barnyardgrass plant response rating (0 to 100 scale) [14]: 0; Galium plant response rating [15]: 0; Galium plant response rating (0 to 100 scale) [15]: 0; Corn plant response rating (corn (Zea mays)): 0; Corn plant response rating (0 to 100 scale) (corn (Zea mays)): 0; Blackgrass plant response rating [16]: 0; Blackgrass plant response rating (0 to 100 scale) [16]: 0; Foxtail, Giant plant response rating [17]: 0; Foxtail, Giant plant response rating (0 to 100 scale) [17]: 0; Pigweed plant response rating [18]: 0; Pigweed plant response rating (0 to 100 scale) [18]: 0 |
| O=C(OCC(F)(F)C(F)(F)F)c1c(F)cccc1Oc1ncc(Cl)cn1 [Compound 5] | 0 | 0 | 0 | 0 | 0 | 0 | 0 | 0 | 0 | 0 | 0 | 0 | 0 | 0 | 0 | 0 | 0 | 0 | 0 | 0 | Wheat plant response rating [12]: 0; Wheat plant response rating (0 to 100 scale) [12]: 0; Ryegrass, Italian plant response rating [13]: 0; Ryegrass, Italian plant response rating (0 to 100 scale) [13]: 0; Barnyardgrass plant response rating [14]: 0; Barnyardgrass plant response rating (0 to 100 scale) [14]: 0; Galium plant response rating [15]: 0; Galium plant response rating (0 to 100 scale) [15]: 0; Corn plant response rating (corn (Zea mays)): 0; Corn plant response rating (0 to 100 scale) (corn (Zea mays)): 0; Blackgrass plant response rating [16]: 0; Blackgrass plant response rating (0 to 100 scale) [16]: 0; Foxtail, Giant plant response rating [17]: 0; Foxtail, Giant plant response rating (0 to 100 scale) [17]: 0; Pigweed plant response rating [18]: 0; Pigweed plant response rating (0 to 100 scale) [18]: 0 |
